Reference: US9452990B2, “Complement pathway modulators and uses thereof” (NOVARTIS AG, priority 2012, dated 2016)
Structures can show the parent of a compound that is named as a salt.

Biological target: human complement factor B (CVF-Bb complex) (Homo sapiens (Human), UniProt P00751)
Assay: Human Complement Factor B ELISA Assay
Type: biochemical
Details: not given
In short: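 Preformed CVF-Bb complex (3 nM; cobra venom factor with recombinant human factors B and D) preincubated with compound 1 h, RT, in PBS pH 7.4, 10 mM MgCl2, 0.05% CHAPS. Plasma C3 added at 1 μM final for 1 h, then stopped; C3a product measured by ELISA, IC50 from % inhibition.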

| SMILES | IC50 |
| --- | --- |
| COc1cc2c(N)nc(N3CCN(C(=O)C[C@@H]4CCN4)C[C@@H]3c3ccccc3)nc2c(F)c1OC [Example 119, 1-[(S)-4-(4-Amino-8-fluoro-6,7-dimethoxy-quinazolin-2-yl)-3-phenyl-piperazin-1-yl]-2-(S)-azetidin-2-yl-ethanone hydrochloride] | 610 nM |
| C#Cc1ccc([C@H](N)CC(=O)N2CCN(c3nc(N)c4cc(OC)c(OC)c(F)c4n3)CC2)cc1 [Example 42, (R)-3-Amino-1-[4-(4-amino-8-fluoro-6,7-dimethoxy-quinazolin-2-yl)-piperazin-1-yl]-3-(4-ethynyl-phenyl)-propan-1-one hydrochloride] | 510 nM |
| COc1cc2c(N)nc(N3CCN(C(=O)C[C@@H](N)c4cccs4)CC3)nc2c(F)c1OC [Example 36, (R)-3-Amino-1-[4-(4-amino-8-fluoro-6,7-dimethoxy-quinazolin-2-yl)-piperazin-1-yl]-3-thiophen-2-yl-propan-1-one hydrochloride] | 190 nM |
| COc1cc2c(N)nc(N3CCN(C(=O)C[C@@H](N)c4ccccc4F)C[C@@H]3C)nc2c(F)c1OC [Example 59, (R)-3-Amino-1-[(S)-4-(4-amino-8-fluoro-6,7-dimethoxy-quinazolin-2-yl)-3-methyl-piperazin-1-yl]-3-(2-fluoro-phenyl)-propan-1-one hydrochloride] | 160 nM |
| CC[C@H]1CN(C(=O)C[C@@H](N)c2ccc(F)cc2)CCN1c1nc(N)c2cc(OC)c(OC)c(F)c2n1 [Example 65, (R)-3-Amino-1-[(S)-4-(4-amino-8-fluoro-6,7-dimethoxy-quinazolin-2-yl)-3-ethyl-piperazin-1-yl]-3-(4-fluoro-phenyl)-propan-1-one hydrochloride] | 30 nM |

Same assay, conditions: CVF-Bb complex 3 nM, 1 hour preincubation with compound at room temperature, human C3 substrate 1 μM, C3a quantified by ELISA; read-out: Factor B IC50

| SMILES | IC50 |
| --- | --- |
| CCC[C@H]1CN(C(=O)C[C@@H]2CCCN2)CCN1c1nc(N)c2cc(OC)c(OC)c(F)c2n1 [Example 118, 1-[(S)-4-(4-Amino-8-fluoro-6,7-dimethoxy-quinazolin-2-yl)-3-propyl-piperazin-1-yl]-2-(S)-pyrrolidin-2-yl-ethanone] | 270 nM |
| COc1cc2c(N)nc(N3CCN(C(=O)C[C@@H]4CCCCN4)C[C@@H]3c3ccccc3)nc2c(F)c1OC [Example 121, 1-[(S)-4-(4-Amino-8-fluoro-6,7-dimethoxy-quinazolin-2-yl)-3-phenyl-piperazin-1-yl]-2-(S)-piperidin-2-yl-ethanone] | 20 nM |
| COc1cc2c(N)nc(N3CCN(C(=O)C[C@H](c4ccccc4)N(C)C)CC3)nc2c(F)c1OC [Example 85, (R)-1-[4-(4-Amino-8-fluoro-6,7-dimethoxy-quinazolin-2-yl)-piperazin-1-yl]-3-dimethylamino-3-phenyl-propan-1-one] | 80 nM |
| COc1cc2c(N)nc(N3CCN(C(=O)c4cc5cc(F)ccc5[nH]4)C[C@@H]3C)nc2c(F)c1OC [Example 24, [(S)-4-(4-Amino-8-fluoro-6,7-dimethoxy-quinazolin-2-yl)-3-methyl-piperazin-1-yl]-(5-fluoro-1H-indol-2-yl)-methanone] | 90 nM |
| COc1cc2c(N)nc(N3CCN(C(=O)C[C@@H](N)c4ccc(F)cc4)CC3)nc2c(F)c1OC [Example 46, (R)-3-Amino-1-[4-(4-amino-8-fluoro-6,7-dimethoxy-quinazolin-2-yl)-piperazin-1-yl]-3-(4-fluoro-phenyl)-propan-1-one] | 40 nM |
| COc1cc2c(N)nc(N3CCN(C(=O)C[C@@H]4CCCNC4)CC3)nc2c(F)c1OC [Example 114, 1-[4-(4-Amino-8-fluoro-6,7-dimethoxy-quinazolin-2-yl)-piperazin-1-yl]-2-(S)-piperidin-3-yl-ethanone] | 3870 nM |
| COc1cc2c(N)nc(N3CCN(C(=O)C[C@@H]4CCCCN4)CC3)nc2c(C#N)c1OC [Example 126, (S)-4-Amino-6,7-dimethoxy-2-(4-(2-(piperidin-2-yl)acetyl)piperazin-1-yl)quinazoline-8-carbonitrile] | 2900 nM |
| COc1cc2c(N)nc(N3CCN(C(=O)CC4NCc5ccccc54)CC3)nc2c(F)c1OC (stereo not shown) [Example 112, 1-[4-(4-Amino-8-fluoro-6,7-dimethoxy-quinazolin-2-yl)-piperazin-1-yl]-2-(2,3-dihydro-1H-isoindol-1-yl)-ethanone] | 350 nM |
| CCC[C@H]1CN(C(=O)/C=C/c2ccc(C#N)cc2)CCN1c1nc(N)c2cc(OC)c(OC)c(F)c2n1 [Example 9, 4-{(E)-3-[(S)-4-(4-Amino-8-fluoro-6,7-dimethoxy-quinazolin-2-yl)-3-propyl-piperazin-1-yl]-3-oxo-propenyl}-benzonitrile] | 20 nM |
| COc1cc2c(N)nc(N3CCN(C(=O)c4cc5cc(F)cc(F)c5[nH]4)CC3)nc2c(F)c1OC [Example 22, [4-(4-Amino-8-fluoro-6,7-dimethoxy-quinazolin-2-yl)-piperazin-1-yl]-(5,7-difluoro-1H-indol-2-yl)-methanone] | 17 nM |
| COc1cc2c(N)nc(N3CCN(C(=O)C[C@@H]4CCN4)CC3)nc2c(F)c1OC [Example 109, 1-[4-(4-Amino-8-fluoro-6,7-dimethoxy-quinazolin-2-yl)-piperazin-1-yl]-2-(S)-azetidin-2-yl-ethanone] | 4270 nM |
| COc1cc2c(N)nc(N3CCN(C(=O)C[C@H](c4ccc(F)cc4)N4CCC4)CC3)nc2c(F)c1OC [Example 96, (R)-1-(4-(4-amino-8-fluoro-6,7-dimethoxyquinazolin-2-yl)piperazin-1-yl)-3-(azetidin-1-yl)-3-(4-fluorophenyl)propan-1-one] | 10 nM |
| COc1cc2c(N)nc(N3CCN(C(=O)C[C@@H](N)c4cccc(C#N)c4)CC3)nc2c(F)c1OC [Example 43, 3-{(R)-1-Amino-3-[4-(4-amino-8-fluoro-6,7-dimethoxy-quinazolin-2-yl)-piperazin-1-yl]-3-oxo-propyl}-benzonitrile] | 40 nM |
| CC[C@H]1CN(C(=O)[C@@H]2CCc3ccccc3[C@@H]2N)CCN1c1nc(N)c2cc(OC)c(OC)c(F)c2n1 [Example 106, [(S)-4-(4-Amino-8-fluoro-6,7-dimethoxy-quinazolin-2-yl)-3-ethyl-piperazin-1-yl]-((1R,2R)-1-amino-1,2,3,4-tetrahydro-naphthalen-2-yl)-methanone] | 2660 nM |
| COc1cc2c(N)nc(N3CCN(C(=O)/C=C/c4ccc(F)cc4)CC3)nc2c(Cl)c1OC [Example 16, (E)-1-(4-(4-Amino-8-chloro-6,7-dimethoxyquinazolin-2-yl)piperazin-1-yl)-3-(4-fluorophenyl)prop-2-en-1-one] | 1440 nM |
| COc1cc2c(N)nc(N3CCN(C(=O)C[C@@H](NC(C)C)c4ccc(F)cc4)CC3)nc2c(F)c1OC [Example 89, (R)-1-[4-(4-Amino-8-fluoro-6,7-dimethoxy-quinazolin-2-yl)-piperazin-1-yl]-3-(4-fluoro-phenyl)-3-isopropylamino-propan-1-one] | 30 nM |
| COc1cc2c(N)nc(N3CCN(C(=O)C[C@@H](CN)c4ccccc4)CC3)nc2c(F)c1OC [Example 129, (R)-4-Amino-1-[4-(4-amino-8-fluoro-6,7-dimethoxy-quinazolin-2-yl)-piperazin-1-yl]-3-phenyl-butan-1-one] | 710 nM |
| COc1cc2c(N)nc(N3CCN(C(=O)C[C@@H](N)c4ccc(F)cc4)CC3)nc2c(Cl)c1OC [Example 82, (R)-3-Amino-1-(4-(4-amino-8-chloro-6,7-dimethoxyquinazolin-2-yl)piperazin-1-yl)-3-(4-fluorophenyl)propan-1-one] | 1020 nM |
| COc1cc2c(N)nc(N3CCN(C(=O)C[C@@H](C(N)=O)c4ccc(F)cc4)CC3)nc2c(F)c1OC [Example 130, (R)-4-[4-(4-Amino-8-fluoro-6,7-dimethoxy-quinazolin-2-yl)-piperazin-1-yl]-2-(4-fluoro-phenyl)-4-oxo-butyramide] | 10 nM |
| COc1cc2c(N)nc(N3CCN(C(=O)c4cc5cc(F)ccc5[nH]4)C[C@@H]3c3ccccc3)nc2c(F)c1OC [Example 29, (S)-(4-(4-amino-8-fluoro-6,7-dimethoxyquinazolin-2-yl)-3-phenylpiperazin-1-yl)(5-fluoro-1H-indol-2-yl)methanone] | 14 nM |
| COc1cc2c(N)nc(N3CCN(C(=O)/C=C/c4ccc(C#N)cc4)C[C@@H]3C)nc2c(F)c1OC [Example 7, 4-{(E)-3-[(S)-4-(4-Amino-8-fluoro-6,7-dimethoxy-quinazolin-2-yl)-3-methyl-piperazin-1-yl]-3-oxo-propenyl}-benzonitrile] | 20 nM |
| COc1cc2c(N)nc(N3CCN(C(=O)/C=C/C4CC4)CC3)nc2c(C#N)c1OC [Example 5, 4-Amino-2-[4-((E)-3-cyclopropyl-acryloyl)-piperazin-1-yl]-6,7-dimethoxy-quinazoline-8-carbonitrile] | 440 nM |
| COc1cc2c(N)nc(N3CCN(C(=O)C[C@@H](N)c4cccc(F)c4)CC3)nc2c(F)c1OC [Example 45, (R)-3-Amino-1-[4-(4-amino-8-fluoro-6,7-dimethoxy-quinazolin-2-yl)-piperazin-1-yl]-3-(3-fluoro-phenyl)-propan-1-one] | 50 nM |
